These results are taken from patent US20100240040A1, “METHOD FOR SCREENING FOR SELECTIVE MODULATOR OF THE NF-KB PATHWAY ACTIVATION” (INSTITUT PASTEUR, priority 2007, published 2010).

Data set [1] concerns NF-κB pathway. The experiment in a line: NF-κB inhibition assay (β-galactosidase reporter) in 70Z/3-C3 cells. Type of data set: cell-based. The note with it: pre-B 70Z3 lymphocytes activated with PMA, IL-1 or LPS; similar for the stimuli; read-out: IC50 of inhibition of the NF-kB pathway. The method, then: 4.5×10^5 70Z/3-C3 cells in 450 μl of 10% FCS-RPMI (Invitrogen) were incubated with 0-20 μM peptide BA-DR NLM or BA-NLM. After 2 h at 37° C., 200 μl of cell samples were transferred in duplicate to a 96-well micro titer plate. One well was treated for 4 h with either 15 μg/ml LPS, 20 ng/ml IL1-β or 100 ng/ml PMA. A control well was left untreated. After 4 h at 37° C., cells were centrifuged at 400×g for 5 min at room temperature, the pellets were washed three times with cold PBS (200 μl), and the cells were lysed in 100 μl of lysis buffer (25 mM tris-phosphate buffer at pH7.8 containing 8 mM MgCl2, 1 mM dithioerythreitol, 1% Triton X-100, 15% glycerol and a protease inhibitor mixture (Roche Applied Science, ref. 1836145)). The lysate was centrifuged at 1000×g for 20 min at 4° C., and supernatant was kept on ice before performing the β-galactosidase assay. β-galactosidase assays were performed on 50 μl of the supernatant and in an assay mix containing 4 μl of Galacton-star chemiluminescent substrate and 196 μl of reaction buffer (Clonetech). The activity was measured with a plate luminometer (Berthold).

The test system of a further data set is ERK and p38 pathway. Put plainly: SRE-luc reporter assay in Jurkat cells stimulated with PMA and ionomycin. Type of data set: cell-based, human. The note with it: 5 μM peptide, T-lymphocytes. The method, then: (§1) Jurkat T cells (clone 20) were transiently transfected by a DEAE-dextran method with a reporter plasmid containing the luciferase under the control of a promoter inducible by the ERK and p38 pathway (SRE-luc; Courtois et al., 1997, Mol. Cell. Biol, 17:1441-1449), the NF-AT pathway or the API pathway (respectively NF-AT-luc and AP1-luc; Northrop et al., 1993, J. Biol. […]., 268:2917-2923). Briefly, cells were washed and resuspended at 10^7 cells/ml in TBS containing 0.5 mg/ml of DEAE-dextran (Pharmacia). 1 μg per 2·10^6 cells of reporter plasmid was added. After 45 min at room temperature, the cells were diluted with 10 volumes of TBS, centrifuged, and resuspended at 10^6 cells/ml in 10% FCS-RPMI. After 24 h, cells were incubated with or without 5 μM NEMO-derived peptides (BA-NLM or BA-DR NLM) for 2 h. They were stimulated or mock-stimulated with 100 ng/ml PMA and 1 μg/ml ionomycin for 5 h, and finally lysed in luciferase buffer (25 mM Tris-phosphate pH 7.8 containing 8 mM MgCl2, 1 mM DTE, 1% Triton X100, 15% glycerol). Luciferase measurement was carried out in a Berthold Luminometer.

For another data set, the system named is AP1 pathway. The experiment in a line: AP1-luc reporter assay in Jurkat cells stimulated with PMA and ionomycin. The note with it: 5 μM peptide, T-lymphocytes. Type of data set: cell-based, human. Here is the method: as §1
Data set [2] has as its target T1, CC2-LZ interaction with cellular polyubiquitinylated proteins (Mus musculus, UniProt O88522).
T1 construct: made in house; host or cells: chemical synthesis (bait); crude extract of JM4.5.2 cells with or without TNFα (partners)
The experiment in a line: Pull-down of polyubiquitinylated proteins from JM4.5.2 extracts with biotinylated CC2-LZ, anti-ubiquitin Western blot. The note with it: 20 μM peptide, extracts of TNF-α stimulated JM4.5.2 cells. Format: biochemical. The method, then: 24·10^7 JM4.5.2 cells were stimulated or not with 10 ng/ml of TNFα for 10 minutes at 37° C., washed twice with cold PBS and lysed in 900 μl of lysis buffer containing a protease inhibitor mixture as indicated in Example 1.D. Lysates were clarified at 15 000×g at 4° C. for 30 min. 150 μl of proteins were incubated 2 h at 4° C. with 150 μl of streptavidin magnetic beads (MagPrep®, Novagen) pre-incubated 1 h at 4° C. with 10 μg of biotynilated-CC2-LZ and with or without 20 μM of peptides (BA-NLM or BA-DR NLM). Beads were washed 4 times in buffer A (10 mM Hepes pH 7.5, 150 mM NaCl, 8 mM MgCl2, 10% glycerol, 0.1 mM DDM and 1 mM DTE) and resuspended in 30 μl of laemmli buffer containing 6 M Urea. Samples were analysed by Western blotting using anti-ubiquitin antibodies (Sigma) as well as anti-NDPK-B antibodies for loading controls.
Thus, the Inventors examined whether DR NLM impedes the interaction between NEMO and the K63 polyubiquitin chains. To this end, they developed a pull down assay which uses the a peptide comprising the CC2 and the LZ domains of NEMO as a bait to pull down the polyubiquitinylated proteins as described in Example 1.J and depicted in FIG. 7A. […] After extensive washing of beads, all mono and polyubiquitinylated proteins bound to CC2-LZ were analysed by Western blot using anti-ubiquitin antibody (Sigma).
(In general: A western blot detects proteins with antibodies after separation by electrophoresis.)

The target of data set [3] is T2, Lys63-linked polyubiquitin chains (Homo sapiens, UniProt P0CG47).
T2 construct: the Lys63-linked polyubiquitin chains; purchased Boston Biochem
Put plainly: In vitro binding assay by fluorescence polarization to polyubiquitin chains. The note with it: tag-free peptide.

Data set [4] is described as follows: Circular dichroism and gel filtration, self-association of peptides. Type of data set: physicochemical. The note with it: peptide concentration up to 100 μM; data not shown. The method, then: Far-UV circular dichroism (CD) measurements were performed with an Aviv 215 spectropolarimeter with samples diluted in 10 mM NaPO4 at pH 7.
Then, unlike the LZ peptide, DR NLM peptide as well as NLM peptide are unable to self-associate. Self association of LZ peptide is described by Agou et al., 2004b.

The subject of data set [5] is NF-κB pathway. The note with it: reported in WO 2005/027959; cited from earlier work.

The structures appear in SMILES notation. Where a SMILES comes first, the peptide text is derived from it.

T1 sequence (O88522 253-336): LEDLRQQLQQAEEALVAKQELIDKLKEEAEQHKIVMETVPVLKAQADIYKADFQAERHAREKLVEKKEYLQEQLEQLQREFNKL

For orientation: IC50 means the concentration that inhibits the measured activity by half. For the molecule `CC[C@H](C)[C@H](NC(=O)[C@H](CC(=O)O)NC(=O)[C@H](C)NC(=O)[C@H](CCC(N)=O)NC(=O)[C@H](C)NC(=O)[C@H](CCCCN)NC(=O)[C@H](CC(C)C)NC(C)=O)C(=O)N[C@@H](Cc1ccc(O)cc1)C(=O)N[C@@H](CCCCN)C(=O)N[C@@H](C)C(=O)N[C@@H](CCCNC(=N)N)C(=O)N[C@@H](Cc1ccccc1)C(=O)N[C@@H](CCC(N)=O)C(=O)N[C@@H](C)C(=O)N[C@@H](CCC(=O)O)C(=O)N[C@@H](CCCNC(=N)N)C(=O)N[C@@H](Cc1c[nH]cn1)C(=O)N[C@@H](C)C(=O)N[C@@H](CCCNC(=N)N)C(=O)N[C@@H](CCC(=O)O)C(=O)N[C@@H](CCCCN)C(N)=O` [DR NLM] (Ac-LKAQADIYKARFQAERHAREK-NH2; N-terminus and C-terminus assumed), the half-maximal inhibitory concentration (IC50) with NF-κB pathway [1] came out at 0.9 µM. The “effect on ERK and p38 pathways” value with ERK and p38 pathway is on record as “does not abrogate”. Also, in the data set with AP1 pathway, the “effect on AP1 pathway” value is “does not abrogate”. The “inhibition of CC2-LZ interaction with polyubiquitinylated proteins” value in data set [2] is “abolishes the CC2-LZ interaction with the cellular polyubiquitinylated proteins”. Also, the “cooperativity index (Hill coefficient) n” value in data set [3] is on record as 1. Moreover, the Kd in data set [3] (read-out: dissociation constant for Lys63-linked polyubiquitin chains) stood at 250 µM. The “oligomeric state / self-association” value in data set [4] is listed as “behave as monomer”. Further, the “inhibition of NF-κB activation” value in the data set on NF-κB pathway [5] is “inhibit NF-κB activation”.
